# From US6046224A, “12 (S)--hete receptor blockers” (City of Hope, priority 1998, dated 2000)
# Values joined by “and” are separate entries in the source; they are usually repeats but may differ in a detail not shown here. Identical values can stand only once. “Also recorded” adds a separate entry of the source. Counter-ions that a name gives are not always drawn. Like-named read-outs stand apart in the source and are kept apart here.
# Key:
# [1] = test system: Human Aortic Endothelial Cells; experiment: Monocyte adhesion to human aortic endothelial cells, monocytes treated with 12(S)-HETE; assay type: cell-based; conditions: monocytes with 10^-9 M 12(S)-HETE, 12 minutes
# Description: Neutrophil binding is not increased. […] See Example 10.
# Monocytes were incubated with 10^-9 M 12(S)-HETE for 12 minutes at room temperature (RT) or 37° C. or left untreated at room temperature and assayed for monocytes adhesion. Eight fields were counted for each experiment.
# [2] = test system: Human Aortic Endothelial Cells; experiment: Monocyte binding to human aortic endothelial cells, endothelial cells treated; assay type: cell-based
# Text: Lipoxygenases (LO) are metabolic enzymes which catalyze the stereospecific oxygenation of polyunsaturated fatty acids to hydroperoxy fatty acids (Hamberg et al., J. Biol. Chem. 242:5329-5335 (1967)). The physiological function of 12-LO, the mammalian enzyme which catalyzes the oxygenation of arachidonic acid to (S)-12-hydroperoxyeicosatetraenoic acid (12-HPETE) and (S)-12-hydroxyeicosatetraenoic acid (12(S)-HETE), is unclear. 12-LO exists as two isoforms which are the products of different genes, leukocyte-type 12-LO and platelet-type 12-LO, which share 65% homology at the amino acid level (Izumi et al., Proc. Natl. Acad. Sci., USA 87:7477-7481 (1990); Funk et al., Proc. Natl. Acad. Sci. USA 87:5638-5642 (1990)). […] 12(S)-HETE has direct mitogenic and hypertrophic effects in vascular cells. […] In addition, glucose-induced monocyte adhesion was abrogated by the inhibition of 12-LO using both phenidone, a non-specific LO inhibitor, and baicalein, a more specific 12-LO inhibitor. The adhesion caused by 12-LO products appears to be monocyte-specific.
# [3] = test system: 12(S)-HETE receptor (CHO-AT1a cells); experiment: [3H]12(S)-HETE binding to CHO-AT1a cells; parameters: species or system Chinese hamster; conditions: for blockade/displacement of [3H]12(S)-HETE binding: CHO-AT1a cells, 4° C.
# Description: Kinetics of [^3 H]12(S)-HETE binding to CHO-AT1a cells. FIGS. 1 and 2 are a competition curves which examine the specificity of [^3 H]12(S)-HETE binding. CHO-AT1a cells were grown to confluence in 24 well tissue culture dishes in HAM's F12 medium containing 10% fetal calf serum. The cells were then rinsed and placed in fresh medium, HAM's F12/HEPES with no other additives (450 µl per well). Serial dilutions of unlabeled 12(S)-HETE or DuP654 were added to the wells. Commercial unlabeled 12(S)-HETE (BioMol Corp.) was dried and reconstituted in ethanol to obtain a stock solution of 5 mM. DuP654 was dissolved in DMSO to get a stock solution of 5 mM. These were then serially diluted and added in a volume of 1 u1 to the wells to obtain the final concentrations indicated. Then [^3 H]12(S)-HETE (10,000 cpm in a volume of 50 µl per well) was added from a stock solution obtained by adding the tracer to the medium. The plates were then incubated at 4° C. with continuous shaking for 2 hr. The cells were then washed 2 times with cold PBS and lysed in 0.3N NaOH (200 u1). Radioactivity in the cell lysates was quantitated in scintillation counter. Affinities and binding constants were obtained using […] computer software (Mlab, Civilized Software Inc., Bethesda, Md.).
# Tritrated 12(S)-HETE binding is blocked by unlabeled 12(S)-HETE. DuP654, a 12(S)-HETE receptor antagonist, was shown also to block 12(S)-HETE at a concentration of 0.1 μM in both AT1a Σ and AT1a 27 cell types, two clones of CHO cells which overexpress the AII1a receptor. The cells were grown as described in Example 1.
# Blockade of 12(S)-HETE binding by pertussis toxin. Cells were grown as described in Example 1. Prior to addition of drug (12(S)-HETE or DuP654) to the cells, the cultures were preincubated in HAM's F12 medium +0.1% BSA for two hours at 37° C. with or without 100 ng/ml pertussis toxin. Serial dilutions of unlabeled 12(S)-HETE or DuP654 were added, followed by [^3 H]12(S)-HETE as described for Example 1. After incubation and washing, radioactivity in the cell lysates was quantitated. As discussed above, pertussis toxin could also ablate 12(S)-HETE-induced mitogenic effects. This implicates the involvement of a Gi -protein-coupled receptor.
# CHO-AT1a cells [4] = experiment: Growth/mitogenesis of CHO-AT1a cells; assay type: cell-based, Chinese hamster
# Description: Partial blockade of 12(S)-HETE mitogensis by the specific angiotensin AT1a receptor antagonist, Losartan, in CHO-AT1a cells. (FIG. 5) CHO-AT1a cells were plated in 12-well dishes (about 5-10,000 cells per well) for 24 hr. in growth medium consisting of HAM's, F12+10% FCS. They were then serum depleted for 72 hours by replacing the medium with HAM's F12+0.1% BSA. This medium was then freshly replaced along with AII or 12-HETE (0.1 μM each) prior to addition of drug to the cells. Losartan was added as a solution in water to the cells 15 min. prior to the addition of AII or 12-HETE. Fresh medium containing the same concentrations of AII or 12(S)-HETE plus Losartan was replaced every 48 hours. At the end of 8 days, the medium was removed, and 1 ml trypsin was added per well followed by 1 ml isoton after 3 min. These trypsinized cells were counted on a Coulter counter. […] 12-HETE binding (FIG. 4).
# The three cell lines, CHO-AT1a, CHO-AT1b and mock transfected CHO cells were gifts from Dr. Eric Clauser (Inserm Unit, Paris, France). These cells were plated in 12 well dishes in HAM's F12 medium +10% FCS. After 72 hours serum depletion in HAM's F12+0.05% FCS, the cells were treated with AII or 12(S)-HETE (0.1 μM). Cells counts (after trypsinization) were taken at 48 hour intervals and fresh medium along with AII or 12-HETE added at these 48 hour intervals.
# [5] = test system: 12(S)-HETE receptors on the human epidermal cell line SCL-II; conditions: Arenberger et al. 1993; cited from earlier work
# PAK [6] = experiment: PAK activity in CHO-AT1a cells; assay type: cell-based, Chinese hamster; conditions: 10^-7 M 12(S)-HETE, 10 minutes
# Description: CHO-AT1a cells were gently washed and placed in depletion medium (HAM's F-12 medium containing 1 mg.backslash.ml BSA and 20 mM HEPES, ph 7.4) for 72 hours prior to use. After incubation for 30 minutes, the cells were treated with 10^-7 M 12(S)-HETE or with ethanol. The 12(S)-HETE treatment was terminated by washing twice with PBS and adding 300 μl lysis buffer (50 mM HEPES. pH 7.5, containing 150 mM NaCl, 5 mM MgCl2, 1 mM EGTA, 50 mM NaF, 10 mM sodium pyrophosphate, 1% NP-40, 2.5% glycerol and 1 mM Na3 VO4 containing the protease inhibitors phenylmethylsulfonyl fluoride, leupeptin, and aprotonin) followed by sedimentation at 14,000× g at 4° C. for ten minutes. Protein determination was performed by the Bradford method. […] PAK activity was measured as follows. […] ATP, the kinase activity was measured in 60 μl kinase buffer. […] Results are expressed as stimulation over control.
# For the PBD-transfected group, CHO-AT1a cells were transiently transfected with 15 μg PBD plasmid. […] The bottom panel illustrates the densitometric quantification. […] Results are expressed as stimulation over control. The PAK activity was measured as described in Example 7.
# Cells were pretreated with different concentrations of the PI-3 kinase inhibitor, LY294002 or DMSO (control) for 30 minutes, then treated with 10^-7 M 12(S)-HETE or ethanol (control) for 10 minutes. PAK activity was measured as described in Example 7.
# CHO-AT1a cells [7] = conditions: cited from earlier work; for inhibition of 12(S)-HETE-induced mitogenic effects (pertussis toxin): pretreatment of cells
# [8] = test system: AII-induced proliferation; conditions: cited from earlier work
# [9] = test system: c-jun amino terminal kinase (JNK); conditions: cited from earlier work
# 12-LO [10] = conditions: Scheidegger et al. 1997; cited from earlier work
# 12-LO [11] = conditions: cited from earlier work
# PAK [12] = conditions: cited from earlier work
# CHO-AT1a cells [13] = conditions: cited from earlier work
# [14] = HAEC incubated four hours with 12(S)-HETE, 240 min
molecule,measurement,setting,value
"CCCCC/C=C\C[C@H](O)/C=C/C=C\C/C=C\CCCC(=O)O [12(S)-HETE, (S)-12-hydroxyeicosatetraenoic acid]","Monocyte Adhesion to Human Aortic Endothelial Cells, 12(S)-HETE (37° C.)","[1]; 37° C., P = 0.01",39.0 ± 9.3
same,"Monocyte Adhesion to Human Aortic Endothelial Cells, 12(S)-HETE (RT)","[1]; RT, exp. 1 P = 0.016, exp. 2 P = 0.001",39.6 ± 12.5 and 45.4 ± 7.6
same,average increase in monocyte binding as compared to untreated cells,[2]; [14],3 fold
same,range of increase in monocyte binding as compared to untreated cells,[2]; [14],1.5-5 fold
"Oc1c(Cc2ccccc2)ccc2ccccc12 [DuP654, 2-phenylmethyl-1-naphthol]",blockade of 12(S)-HETE binding at 0.1 μM,"[3]; 0.1 μM, AT1a Σ and AT1a 27 clones",block
same,reduction of 12(S)-HETE-induced cell growth at 0.1 μM,"CHO-AT1a cells [4]; 12(S)-HETE-induced, 0.1 μM",significantly reduced
same,inhibition of 12(S)-HETE-induced mitogenic effects,"CHO-AT1a cells [4]; 12(S)-HETE-induced, CHO-AT1a cells",completely inhibit; also recorded: Complete inhibition
same,reduction of AII-induced cell growth at 0.1 μM,"CHO-AT1a cells [4]; AII-induced, 0.1 μM",significantly reduced
same,inhibition of 12(S)-HETE binding to SCL-II cells,[5],specifically inhibit
O=c1cc(N2CCOCC2)oc2c(-c3ccccc3)cccc12 [LY294002],inhibition of 12(S)-HETE-induced PAK activation,PAK [6],inhibition
"CCCCc1nc(Cl)c(CO)n1Cc1ccc(-c2ccccc2-c2nn[nH]n2)cc1 [Losartan, 2-N-butyl-4-chloro-5-hydroxymethyl-1-[(2'-(1H-tetrazol-5-yl)biphenyl-4-yl)methyl]imidazole, potassium salt]",blockade/displacement of [3H]12(S)-HETE binding,[3]; potassium salt,partially blocked
same,inhibition of 12(S)-HETE-induced mitogenic effects,"CHO-AT1a cells [4]; 12(S)-HETE-induced, CHO-AT1a cells, potassium salt",partially blocked
same,inhibition of AII-induced proliferative effects,"CHO-AT1a cells [4]; AII-induced, CHO-AT1a cells, potassium salt",fully inhibiting; also recorded: fully blocked
O=c1cc(-c2ccccc2)oc2cc(O)c(O)c(O)c12 [baicalein],inhibition of glucose-induced monocyte adhesion,[2],abrogated
same,inhibition of AII proliferative effects,"CHO-AT1a cells [7]; AII-induced, CHO-AT1a cells",inhibited
same,inhibition of proliferative effects of AII,[8],inhibited
O=C1CCN(c2ccccc2)N1 [phenidone],inhibition of glucose-induced monocyte adhesion,[2],abrogated
AII: growth factor and potent vasoconstrictor AII,mitogenic effects in CHO-AT1a cells,CHO-AT1a cells [7]; Wen et al. 1996,sustained increase in DNA synthesis as well as cell number
same,JNK activation,[9]; Wen et al. 1997,activate
same,stimulation of 12-LO activity in murine macrophages,12-LO [10],stimulate
same,stimulation of 12-LO activity in smooth muscle cells,12-LO [11],stimulate
same,PAK activation by AII,PAK [12],activate
"AII: growth factor and potent vasoconstrictor AII (DRVYIHPF; Angiotensin-2; UniProt P01019 25-32, looked up)",increase in cell proliferation,"CHO-AT1a cells [7]; CHO-AT1a cells, 0.1 µM",2 fold
same,increase in 12(S)-HETE formation,CHO-AT1a cells [13],2 fold
pertussis toxin,blockade/displacement of [3H]12(S)-HETE binding,[3],Blockade
same,blockade/displacement of [3H]12(S)-HETE binding,[3]; listed as Pertussis toxin,blocked
same,inhibition of 12(S)-HETE-induced mitogenic effects (pertussis toxin),CHO-AT1a cells [7],completely abrogated; also recorded: ablate
same,inhibition of 12(S)-HETE-induced mitogenic effects (pertussis toxin),CHO-AT1a cells [7]; listed as Pertussis toxin,ablate
same,blockade of JNK activation by 12(S)-HETE,[9]; 12(S)-HETE-induced,block
